According to PubChem BioAssay AID1592 (Sanford-Burnham Center for Chemical Genomics, 2009):
The source made the active and inactive calls.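 Rule for the calls: active = less than 90% of the starting compound still present after 180 minutes in mouse plasma; inactive = 90% or more still present.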

Tested on: mouse plasma stability, LC/MS/MS, 180 min
Assay: mouse plasma degradation, percent remaining – biochemical, LC/MS/MS, 180 min, dry powder, ADME assay, late-stage follow-up (AID 1592)
Details: at 1 µM; stronger effect = lower value

With `C=CCn1c(SCC(=O)c2ccc(O)c(O)c2)nnc1-c1ccccc1OC` the percent remaining was 93.2% (inactive).
